The source of these data is patent US20230203130A1, “A PEPTIDE COCKTAIL” (Hubro Therapeutics AS, priority 2020, published 2023).

Assay [1] concerns T cells (PBMC) from healthy donors. Put plainly: T-cell proliferation (3H-thymidine, SI) after in vitro stimulation of PBMC with cocktail fsp2+fsp4 (Example 4). It is filed as cell-based, human. Also noted: T cell proliferation (stimulation index, SI): immunogenicity: dose or concentration left out as unconfirmed. To be noted: for relative immunogenicity: FIGS. 10 and 11, compared with fsp3 and fsp4; for T cell proliferation (stimulation index, SI): immunogenicity: first and second round of in vitro stimulation with cocktail of fsp2 and fsp4, four healthy donors, FIGS. 10-12. As to the method: Fresh buffy coats from four healthy donors were obtained from a blood bank.
Peripheral blood mononuclear cells (PBMC) isolated from fresh buffy coats from four healthy donors were counted and suspended in DC medium to 15*10^6 cells/ml, and subsequently diluted with DC-medium to 4*10^6 cells/ml (Table 6).
Four 24-well plates were used for each donor, with 4*10^6 cells per well (each well has a volume of 1 ml).
Peptide cocktail: Solution of peptides fsp2+fsp4, containing […] of each peptide. 40 μl peptide solution was added to each well.
The plates were incubated in a cell incubator for 14 days (37° C., 5% CO2). IL-2 and IL-7 were added on day 3. The cells were inspected daily.
Test peptides: fsp2+fsp4 (SEQ ID NOs: 21 and 23), fsp1 (SEQ ID NO: 20), fsp2 (SEQ ID NO: 21), fsp3 (SEQ ID NO: 22), fsp4 (SEQ ID NO: 23), fsp5 (SEQ ID NO: 19).
Negative controls: T cells, T cells+APC (without addition of test peptides)
Cells and reagents were added to plate wells (in triplicate) as described in Tables 8 and 9 below. The total volume added to each well was 0.20 ml. • T cells (PBMC): 50 000 cells/well (0.25*10^6 cells/ml) • APC: Irradiated (30 Gy, 8 minutes) autologous feeder cells: 50 000 cells/well • (fspx): 0.2 nmol peptide/well (each peptide), concentration: […] peptide. (fsp was dissolved in DMSO before dilution to correct concentration)
The plates were incubated in a cell incubator for 48 hours (37° C., 5% CO2).
After incubation for 48 hours, 20 μl 3H-tThymidine solution (5 Ci/ml) was added to each well and the plates were incubated for approximately 17 hours (37° C., 5% CO2).
After 17 hours the cells were harvested (Unifilters) and dried on the filters at 45° C. until completely dry. After covering the bottom of the Unifilters with adhesive covers (delivered with the Unifilters) 25 μl micro scintillation liquid was added to each well, the plate was covered with TopSeal and 3H-Thymidine uptake was measured as counts per minute (CPM) using a microplate scintillation counter.
The T cell proliferation results after the first round of in vitro stimulation with the cocktail of fsp2 and fsp4 peptides are presented as stimulation index (SI) in FIG. 10. SI=mean CPM (triplicates) of (T cells+APC+test peptide(s)) divided by mean CPM (triplicates) of (T cells+APC). SI>1 indicates an increase in T-cell proliferation and SI 2 is a clear sign of immunogenicity.
PBMCs harvested after the first in vitro stimulation were re-stimulated in vitro according to the protocol set out above, with 2×10^6 cells per well. T-cell proliferation was tested according to the protocol set out above.

The test system of assay [2] is T-cells from PBMC bulk cultures of healthy donors. The assay can be described thus: Peptide-specific T-cell proliferation after stimulation of PBMC with cocktail fsp2+fsp8+fsp9 (Example 7). The format is cell-based, human. To be noted: FIGS. 16-18; for T-cell response to the peptide alone: after only one round of stimulation with the peptide mixture; for T-cell response: three donors. As for the experimental part:
PBMCs isolated from buffy coats from four healthy donors (obtained from a blood bank) were suspended in complete CellGro DC medium to 15*10^6 cells/ml and diluted to 4*10^6 cells/ml (Table 14).
On day 1, 1 ml of PBMC suspension (4×10^6 cells/ml) from each donor was transferred to wells of 24-well plates (4*10^6 cells per well) and 60 μl of the peptide cocktail (fsp2+fsp8+fsp9) stock solution (166.67 μM/each peptide) was added to each well. The plates were incubated in a cell incubator for 14 days. IL-2 and IL-7 was added on day 3 (0.50 ml DC medium containing 60 U/ml IL-2 and 15 ng/ml IL-7). The cells were inspected daily and DC medium with cytokines (IL-2, IL7) was refreshed according to in house laboratory routines.
The in vitro stimulation of bulk cultures was repeated a further two times (i.e. a total of three stimulations) using PBMCs harvested after the preceding round of in vitro stimulation. Peptide specific T-cell proliferation was tested on day 14, after each round of stimulation, such that T-cell proliferation was tested on days 14, 28 and 42 after the first round of stimulation.
The cells from the bulk cultures were harvested (5 minutes at 300×g centrifugation) and re-suspended in DC medium (5 ml). An aliquot of the 5 ml resuspension was diluted 5 times and the T-cells counted in order to calculate the volume required to provide 5×10^4 cells per well for the proliferation assay. T-cells from each donor were transferred (triplicates) to wells of 96-well plates (5×10^4 cells per well) together with autologous, irradiated (30 Gy for 8 minutes) PBMCs (5×10^4 cells per well) and test peptide(s) (final concentration 10 μM/each peptide). Negative controls were wells without test peptide(s) and positive controls were wells with SEC-3 (0.1 μg/ml) without test peptide(s). The cells (plates) were incubated for 48 hours (37° C./5% CO2). After 48 hours, 20 μL of 3H-Thymidine (3.7×104 Bq) was added to the cells and incubation was continued for 17 hours. The cells were harvested (Unifilters using the Filtermate 196 Harvester) and dried on the filters for approx. 4.5 hours at 45° C. The cells were counted (CPM) by using the standard in-house laboratory protocol (TopCount Packard microplate scintillation beta counter and run programme).
Peptide-specific T-cell proliferation was measured after 14 days of stimulation of PBMC bulk cultures with a peptide cocktail containing fsp2, fsp8 and fsp9 (10 μM each peptide). Proliferation induced by each of the single peptides and the peptide cocktail was tested at a concentration of […] (each peptide).
Peptide-specific T-cell proliferation was measured after 14 days of re-stimulation of PBMC with a peptide cocktail containing fsp2, fsp8 and fsp9 ([…] each peptide). T-cell proliferation induced by each of the single peptides and the peptide cocktail was tested. The single peptides were tested at a concentration of 10 μM. The peptide cocktail was tested using two different amounts of each peptide in the cocktail, namely, a peptide cocktail containing […] each peptide and a peptide cocktail containing 3.33 μM each peptide.
Peptide-specific T-cell proliferation was measured after 14 days of a further re-stimulation of PBMC with a peptide cocktail containing fsp2, fsp8 and fsp9 ([…] each peptide). T-cell proliferation induced by each of the single peptides and the peptide cocktail was tested. The single peptides were tested at a concentration of 10 μM. […]

Assay [3] deals with T-cells from PMBCs from healthy donors. The assay can be described thus: T-cell proliferation after induction of T-cells with fsp2 (Example 5). To be noted: one round of in vitro stimulation, FIG. 13. It is filed as cell-based, human. As to the method: A similar protocol to that set out in Example 4 was used to test the immunogenicity of fsp6 (SEQ ID NOs: 24) and fsp7 (SEQ ID NO: 123). Fsp2 (SEQ ID NO: 21; 10 μM) was used to induce T-cells from PMBCs isolated from fresh buffy coats from four healthy donors. At day 14 after induction, a T-cell proliferation assay was carried out as in Example 4, using fsp2 (SEQ ID NO: 21), fsp6 (SEQ ID NO: 24) and fsp7 (SEQ ID NO: 123) as test peptides. The T-cell proliferation results after one round of in vitro stimulation are presented as stimulation index (SI) in FIG. 13. […] It is also expected, in view of the results shown in FIGS. 11 and 12, that a peptide having the sequence of fsp6 (SEQ ID NO: […]) but having a C-to-G amino acid substitution corresponding to that in fsp2 is also immunogenic and is useful as a vaccine or treatment against cancer.

The test system of another assay is T cells. To be noted: cited from earlier work; for immunogenicity / T-cell responses / patients recognizing the peptide: Saeterdal et al., PNAS 2001; for immunogenicity / T-cell responses: tumour infiltrating Th cells, MSI+ tumours.

Entries after “also recorded” stand apart in the source; their conditions may differ. Where two headings read alike, the source gives them in different places. Where no end group is shown, it is not given here.

Regarding “KCIMKEKKSLVRLSSCVPVALMSA (listed as Homo sapiens) [fsp1, peptide of −1a frameshifted TGFβR2]”, in assay [1], the relative immunogenicity entry is listed as “more immunogenic than peptides which do not comprise amino acids from the wild-type sequence of TGFβR2” and the “T cell proliferation (stimulation index, SI): immunogenicity” value is given as “stimulated T-cells induced from PMBCs”. In the case of “RNRIPAVLRTEGEPLHTPSVGMRET (listed as Homo sapiens) [fsp8, peptide of −1a frameshifted ASTE1]”, in assay [2], the “T-cell response to the peptide alone” value is “induces a T-cell response” and the T-cell response entry is “able to induce a T-cell response”. On to “fsp7: peptide of −1a frameshifted TGFβR2; same sequence as fsp2 but truncated at the N-terminus (VRLSSCVPVALMSA; listed as Homo sapiens)”, for which the relative immunogenicity entry in assay [3] is “both fsp6 and fsp2 are much more immunogenic than fsp7”. On to “AMTTSSSQKNITPAILTCC (listed as Homo sapiens) [p537, prior art peptide of mutTGFβR2]”, for which the “immunogenicity / T-cell responses” value in the assay with T cells is “not immunogenic”.

Consider “KGIMKEKKSLVRLSSCVPVALMSA (not fully specified) [fsp2, modified peptide of −1a frameshifted TGFβR2]”, for which the relative immunogenicity result in assay [3] is reported as “much more immunogenic than fsp7”. Also, in assay [2], the T-cell response result is “able to induce a T-cell response”. Moreover, in assay [1], the relative immunogenicity result is “more immunogenic than peptides which do not comprise amino acids from the wild-type sequence of TGFβR2”; the “T cell proliferation (stimulation index, SI): immunogenicity” value was “immunogenic and can activate T-cells”. As for “SPKCIMKEKKSLVRLSSCVPVA (listed as Homo sapiens) [P540, prior art peptide of mutTGFβR2]”, the “immunogenicity / T-cell responses” value with T cells was “able to induce T-cell responses in some patients; also recorded: immunogenic”. Consider “PKCIMKEKKKSLVRLSSCV (listed as Homo sapiens) [p541, prior art peptide of mutTGFβR2]”, for which the “immunogenicity / T-cell responses” value was “able to induce T-cell responses in some patients” with T cells and “immunogenic” with T cells (listed as p4541).

For “KTILKKAGIGMCVKVSSIFFINKQK (listed as Homo sapiens) [fsp9, peptide of −1a frameshifted TAF1β]”, in assay [2], the “T-cell response to the peptide alone” value is “induces a T-cell response” and the T-cell response result was “able to induce a T-cell response”. For the substance “SLVRLSSCV (listed as Homo sapiens) [p523, prior art peptide of mutTGFβR2]”, the immunogenicity entry in the assay on T cells (EP1078000 FIG. 14, four rounds of stimulation of the T-cells) is given as “immunogenic”; in the assay on T cells (Linnebacher et al., FIG. 1) it was “not immunogenic”. Consider “KCIMKEKKSLVRLSSCV (listed as Homo sapiens) [fsp6, peptide of −1a frameshifted TGFβR2]”, for which the “T-cell activation (SI)” value in assay [3] (day 14) was “capable of activating T-cells”. The relative immunogenicity result in assay [3] is “less immunogenic than fsp2”. “SSGVPVALMSAMTTSSSQKN (not fully specified) [fsp4, modified peptide of −1a frameshifted TGFβR2]”: the “T cell proliferation (stimulation index, SI): immunogenicity” value in assay [1] is “immunogenic and can activate T-cells”. As for “SLVRLSSCVPVALMSAMTTSSSQ (listed as Homo sapiens) [p538, prior art peptide of mutTGFβR2]”, the “patients recognizing the peptide” value with T cells (patients having spontaneous MSI+ colon cancer) was “two of three”; with T cells (patients with HNPCC), “all three”. The “immunogenicity / T-cell responses” value in the assay on T cells was “highly immunogenic”.
